According to paper PMC2330188 (Acta Crystallographica Section F: Structural Biology and …, 2007):

Target: 5-formyltetrahydrofolate cyclo-ligase (BA4489) (Bacillus anthracis, UniProt A0A6L8PZ12)
Sequence (A0A6L8PZ12 2-192 limits assumed): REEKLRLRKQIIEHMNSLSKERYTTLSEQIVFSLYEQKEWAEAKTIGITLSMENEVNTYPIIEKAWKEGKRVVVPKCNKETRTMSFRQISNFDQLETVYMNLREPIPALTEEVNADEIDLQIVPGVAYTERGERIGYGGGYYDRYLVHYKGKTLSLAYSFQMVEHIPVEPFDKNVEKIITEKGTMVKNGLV

O=P(O)(O)O [phosphate] was tested, and the “X-ray crystal structure, 1.6 Å” value was “hydrolysed to ADP and inorganic phosphate”.
